Tested on: TAC mice
Assay: Cognition (Y Maze, exploratory behaviour)
Assay type: in vivo
Protocol: FIG. 24 is a dot plot showing the % alterations in a Y maze in mice with an absorbable suture versus a plain suture, with and without treatment according to some embodiments. Measurement of the number of alternations within the 3 arms of a Y-Maze according to the following formula: % alternation=(total alternations/(total entries−2)×100).
Cognition (Y Maze—exploratory behaviour). Cognition was measured according to the number of behavior alterations within the three (3) arms of a Y Maze, as shown in FIGS. 23-24.

## CCCCCCCCc1ccc(CCC(N)(CO)CO)cc1 [Fingolimod, fingolimod]
Treated absorbable suture group, SEM=3.556, n=7
  mean % alteration in a Y maze: 61.396%
Treated plain suture group, SEM=2.644, n=12
  mean % alteration in a Y maze: 70.296%
